In patent US20240360135A1, “IMIDAZO[1,2-B]PYRIDAZINYL COMPOUNDS AND USES THEREOF” (Sumitomo Pharma Oncology, Inc., priority 2021, published 2024):

What was measured:
PIM1 = biological target: T1, PIM1 (Homo sapiens, UniProt P11309); assay: RBC HotSpot kinase inhibition assay, PIM1; format: biochemical
T1 construct: purchased Invitrogen PV3503
Method: (§1) Reagents. Base Reaction Buffer: 20 mM Hepes (pH 7.5), 10 mM MgCl2, 1 mM EGTA, 0.01% Brij35, 0.02 mg/ml BSA, 0.1 mM Na3VO4, 2 mM DTT, 1% DMSO. The following kinases were used in the assay at the indicated concentrations:
(§2) The following substrates were used in combination with the indicated kinases in the assay at the indicated concentration:
(§3) No cofactors were added to any of the reactions.
(§4) • 1. Prepared substrate in freshly prepared Reaction Buffer. • 2. Delivered kinase into the substrate solution and gently mixed. • 3. Delivered test compound in 100% DMSO into the kinase reaction mixture by Acoustic technology (Echo550; nanoliter range), incubated for 20 minutes at room temperature. • 4. Delivered ^33P-ATP into the reaction mixture to initiate the reaction. • 5. Incubated for 2 hours at room temperature. • 6. Detected kinase activity by P81 filter-binding method.
(§5) The results of the RBC HotSpot™ kinase assay are set forth in Table 1, wherein “A” indicates an IC50<10 nM, “B” indicates an IC50 wherein 10 nM≤IC50≤100 nM, and “C” indicates an IC50>100 nM.

PIM2 = biological target: T2, PIM2 (Homo sapiens, UniProt Q9P1W9); assay: RBC HotSpot kinase inhibition assay, PIM2; format: biochemical
T2 construct: purchased Invitrogen PR6347B
Method: as §1, §2, §3, §4, §5

PIM3 = biological target: T3, PIM3 (Homo sapiens, UniProt Q86V86); assay: RBC HotSpot kinase inhibition assay, PIM3; format: biochemical
T3 construct: purchased Millipore 14-738
Method: as §1, §2, §3, §4, §5

A549 cells = assay: Wound healing assay in A549 cells with TGF-β; format: cell-based; conditions: Homo sapiens; wound healing, A549, 5 ng/ml TGF-β, 24 h; read-out: IC50 (μM) 24 h
Text: Overview. Epithelial to mesenchymal transition (EMT) is used to describe epithelial cells losing their cell to cell adhesion and polarity while gaining migratory and invasive properties. The process of EMT is required for normal embryonic development and wound healing, but has also been implicated in fibrosis. In humans, TGF-β signaling is the main driver of EMT, and inhibiting this pathway may be beneficial in various diseases such as fibrosis. A wound healing assay was used to study cell migration and cell-cell interaction, and probe the EMT properties of lung epithelial cells (A549) in presence of Compound 2 or Compound 4.
Procedure. A549 cells (ATCC, CCL-185) were seeded into the ImageLock plate (Essen Bioscience) at 2×10^4 cells/well in 100 μL of complete growth media. Cells were incubated overnight at 37° C., 5% CO2. The next day, cells were washed with 1×PBS and Compound 2, Compound 4, DMSO control (±TGF-β) or galunisertib (TGF-β inhibitor used as positive control) was added to the cells in a serum-free F12K media (0.2% DMSO final, 10 μM starting concentration, 3-fold dilution, 8-doses) in presence of 5 ng/ml TGF-β. Cells were incubated for 48 hours (until they reached confluency) at 37° C., 5% CO2. Wounds were simultaneously created using a WoundMaker™ (Essen Bioscience). Debris and non-attached cells were removed by gently washing once with F12K.
Test compound or control compound and TGF-β were added to the cells in F12K+10% FBS as previously described. The ImageLock plate was put into IncuCyteS3 instrument installed inside a 5% CO2 incubator. The plate was allowed to equilibrate in the IncuCyteS3 instrument for 15 minutes prior to scheduling the first scan and data recording. The plate was incubated for 72 hours at 37° C., and wound closure was recorded in real time with the IncuCyte S3 imaging system. Percentage of relative wound density was quantitatively calculated by the IncuCyte software.

mouse psoriasis models = conditions: cited from earlier work

T1 sequence (P11309 whole entry): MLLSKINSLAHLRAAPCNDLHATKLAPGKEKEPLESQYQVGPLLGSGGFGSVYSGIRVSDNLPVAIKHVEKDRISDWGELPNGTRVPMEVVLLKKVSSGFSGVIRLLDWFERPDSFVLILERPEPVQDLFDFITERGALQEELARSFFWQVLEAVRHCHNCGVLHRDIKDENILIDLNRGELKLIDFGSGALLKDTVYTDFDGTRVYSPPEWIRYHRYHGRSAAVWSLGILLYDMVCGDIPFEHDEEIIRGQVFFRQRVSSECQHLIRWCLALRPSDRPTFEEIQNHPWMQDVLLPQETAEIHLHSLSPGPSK
T2 sequence (Q9P1W9 whole entry): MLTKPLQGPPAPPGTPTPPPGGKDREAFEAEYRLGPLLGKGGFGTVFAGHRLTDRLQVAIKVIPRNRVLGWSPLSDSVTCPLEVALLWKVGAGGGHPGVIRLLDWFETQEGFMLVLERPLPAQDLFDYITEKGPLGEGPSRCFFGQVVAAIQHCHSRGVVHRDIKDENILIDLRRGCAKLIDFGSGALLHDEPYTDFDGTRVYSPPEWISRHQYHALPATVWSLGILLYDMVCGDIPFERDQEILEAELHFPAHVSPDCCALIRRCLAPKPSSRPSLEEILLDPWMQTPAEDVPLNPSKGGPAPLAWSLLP

SMILES | IC50 (PIM1) | IC50 (PIM2) | IC50 (PIM3) | IC50 (A549 cells) | epidermal thickening (mouse psoriasis models) | vascularization (mouse psoriasis models)
CCc1cc(-c2cnc3ccc(NC45CCC(O)(CC4)C5)nn23)c[nH]1 [Compound 3, 4-((3-(5-ethyl-1H-pyrrol-3-yl)imidazo[1,2-b]pyridazin-6-yl)amino)bicyclo[2.2.1]heptan-1-ol] | 10 to 100 nM | > 100 nM | 10 to 100 nM | – | – | –
OC12CCC(Nc3ccc4ncc(-c5cc(C6CC6)[nH]n5)n4n3)(CC1)C2 [Compound 5, 4-((3-(5-cyclopropyl-1H-pyrazol-3-yl)imidazo[1,2-b]pyridazin-6-yl)amino)bicyclo[2.2.1]heptan-1-ol] | 10 to 100 nM | > 100 nM | 10 to 100 nM | – | – | –
CCc1cc(-c2cnc3ccc(NC45CCC(C(C)(C)O)(CC4)CC5)nn23)n[nH]1 [Compound 6, 2-(4-((3-(5-ethyl-1H-pyrazol-3-yl)imidazo[1,2-b]pyridazin-6-yl)amino)bicyclo[2.2.2]octan-1-yl)propan-2-ol] | < 10 nM | > 100 nM | < 10 nM | – | – | –
Cc1cccc(-c2nn3c(c2-c2ccnc4ccc(C(N)=O)cc24)CCC3)n1 [Galunisertib, galunisertib, reference compound] | – | – | – | > 10 µM | – | –
CN1CCC(CNc2ccc3ncc(-c4cccc(OC(F)(F)F)c4)n3n2)CC1 [SGI-1776] | – | – | – | – | partial reduction | partial reduction

Second part, led by results:

IC50 (PIM1) | IC50 (PIM2) | IC50 (PIM3) | SMILES | IC50 (A549 cells) | epidermal thickening (mouse psoriasis models) | vascularization (mouse psoriasis models)
> 100 nM | > 100 nM | > 100 nM | Cc1cc(-c2cnc3ccc(NC45CCC(O)(CC4)C5)nn23)n[nH]1 [Compound 1, 4-((3-(5-methyl-1H-pyrazol-3-yl)imidazo[1,2-b]pyridazin-6-yl)amino)bicyclo[2.2.1]heptan-1-ol] | – | – | –
10 to 100 nM | > 100 nM | 10 to 100 nM | CCc1cc(-c2cnc3ccc(NC45CCC(O)(CC4)C5)nn23)n[nH]1 [Compound 7, 4-((3-(5-ethyl-1H-pyrazol-3-yl)imidazo[1,2-b]pyridazin-6-yl)amino)bicyclo[2.2.1]heptan-1-ol] | – | – | –
